{"source": "patent US5414009A", "about": "“Azabicyclo substituted oxa- or thia-diazole compounds” (Novo Nordisk A/S, priority 1992, dated 1995)", "origin": "cited, not measured here", "key": {"[1]": {"conditions": "in vivo"}, "[2]": {"system": "muscarinic receptor in the CNS", "conditions": "for Kd: read-out: affinity of sites labelled by 3H-Oxo"}, "M1-sites": {"system": "M1-sites", "conditions": "M1-site, pirenzepine sensitive site"}}, "note": "Where two headings read alike, the source gives them in different places."}
{"smiles": "COC(=O)C1=CCCN(C)C1", "note": "[Arecoline, methyl 1-methyl-1,2,5,6-tetrahydropyridine-3-carboxylate]", "values": [{"measurement": "cholinergic agonism", "setting": "muscarinic cholinergic", "value": "cholinergic agonist"}, {"measurement": "separation between central and peripheral muscarinic effects", "setting": "muscarinic", "value": "small separation between central and peripheral muscarinic effects"}, {"measurement": "biological half life", "setting": "[1]", "value": "very short biological half life"}]}
{"smiles": "C[N+](C)(C)CC#CCN1CCCC1=O", "note": "[Compound 3H-Oxo]", "values": [{"measurement": "preference for agonist domains of the receptors", "setting": "[2]; CNS", "value": "with a preference for agonist domains of the receptors"}, {"measurement": "Kd", "setting": "[2]; first of three sites (high affinity)", "value": 1.8, "unit": "nM"}, {"measurement": "Kd", "setting": "[2]; second of three sites (medium affinity)", "value": 20, "unit": "nM"}, {"measurement": "Kd", "setting": "[2]; third of three sites", "value": 3000, "unit": "nM"}]}
{"smiles": "CN1CCN(CC(=O)N2c3ccccc3C(=O)Nc3cccnc32)CC1", "note": "[Pirenzepine, pirenzepine, [N-methyl-^3 H]]", "values": [{"measurement": "selective binding to subtype of muscarinic receptors", "setting": "M1-sites", "value": "binds selectively to subtype of muscarinic receptors"}, {"measurement": "interaction with M2-sites", "setting": "M2-sites", "value": "also interact with M2"}]}
